Laboratory results reported in the supplement of paper PMC10307832.

How the values were obtained:
Test in all cases: relative viability (nuclei count vs DMSO), 5 days (fraction); higher = more cells survive
Palbociclib + Luminespib = compound: CC(=O)c1c(C)c2cnc(Nc3ccc(N4CCNCC4)cn3)nc2n(C2CCCC2)c1=O [Palbociclib] + CCNC(=O)c1noc(-c2cc(C(C)C)c(O)cc2O)c1-c1ccc(CN2CCOCC2)cc1 [Luminespib] (partner 0.01 µM)
Outline: (§1)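 Nuclei were stained with Hoechst during a one-step fixation (final 0.05% Triton X-100, 1% formaldehyde, 1 ug/ml Hoechst) carried out 5 days after dosing, then counted on 4× images. The cells, lung cancer lines in 1536-well plates, had been dosed by pin tool the day after seeding with one drug alone or a fixed anchor-drug dose plus five library-drug doses (not always all listed) in √10 steps. Relative viability is the nuclei count in treated wells divided by that in vehicle wells, and each value is the median of duplicate plates.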

Palbociclib + OSI-027 = compound: CC(=O)c1c(C)c2cnc(Nc3ccc(N4CCNCC4)cn3)nc2n(C2CCCC2)c1=O [Palbociclib] + COc1cccc2cc(-c3nc([C@H]4CC[C@H](C(=O)O)CC4)n4ncnc(N)c34)[nH]c12 [OSI-027] (partner 0.5 µM)
Outline: as §1

Palbociclib + Lapatinib = compound: CC(=O)c1c(C)c2cnc(Nc3ccc(N4CCNCC4)cn3)nc2n(C2CCCC2)c1=O [Palbociclib] + CS(=O)(=O)CCNCc1ccc(-c2ccc3ncnc(Nc4ccc(OCc5cccc(F)c5)c(Cl)c4)c3c2)o1 [Lapatinib] (partner 2 µM)
Outline: as §1

Palbociclib + Decitabine = compound: CC(=O)c1c(C)c2cnc(Nc3ccc(N4CCNCC4)cn3)nc2n(C2CCCC2)c1=O [Palbociclib] + Nc1ncn([C@H]2C[C@H](O)[C@@H](CO)O2)c(=O)n1 [Decitabine] (partner 2 µM)
Outline: as §1

Row | Cell Line | relative viability (Palbociclib + Luminespib; first compound 0.01 µM) | relative viability (Palbociclib + Luminespib; first compound 0.03162 µM) | relative viability (Palbociclib + Luminespib; first compound 0.1 µM) | relative viability (Palbociclib + Luminespib; first compound 0.3162 µM) | relative viability (Palbociclib + Luminespib; first compound 1 µM) | relative viability (Palbociclib + OSI-027; first compound 0.01 µM) | relative viability (Palbociclib + OSI-027; first compound 0.03162 µM) | relative viability (Palbociclib + OSI-027; first compound 0.1 µM) | relative viability (Palbociclib + OSI-027; first compound 0.3162 µM) | relative viability (Palbociclib + OSI-027; first compound 1 µM) | relative viability (Palbociclib + Lapatinib; first compound 0.01 µM) | relative viability (Palbociclib + Lapatinib; first compound 0.03162 µM) | relative viability (Palbociclib + Lapatinib; first compound 0.1 µM) | relative viability (Palbociclib + Lapatinib; first compound 0.3162 µM) | relative viability (Palbociclib + Lapatinib; first compound 1 µM) | relative viability (Palbociclib + Decitabine; first compound 0.01 µM) | relative viability (Palbociclib + Decitabine; first compound 0.03162 µM) | relative viability (Palbociclib + Decitabine; first compound 0.1 µM) | relative viability (Palbociclib + Decitabine; first compound 0.3162 µM) | relative viability (Palbociclib + Decitabine; first compound 1 µM)
1 | SK-MES-1 | 0.755 | 0.462 | 0.587 | 0.42 | 0.376 | 0.528 | 0.364 | 0.345 | 0.314 | 0.186 | 0.439 | 0.449 | 0.391 | 0.406 | 0.344 | 0.354 | 0.377 | 0.404 | 0.357 | 0.263
2 | NCI-H2170 | 0.536 | 0.536 | 0.558 | 0.707 | 0.536 | 0.72 | 0.642 | 0.61 | 0.638 | 0.407 | 0.29 | 0.23 | 0.245 | 0.233 | 0.25 | 0.503 | 0.478 | 0.446 | 0.477 | 0.45
3 | LC-2-ad | 0.944 |  | 0.856 | 0.8 | 0.535 | 0.746 |  | 0.604 | 0.625 | 0.474 | 0.947 |  | 0.736 | 0.705 | 0.491 | 0.82 | 0.781 | 0.758 | 0.691 | 0.756
4 | NCI-H1793 | 0.17 |  | 0.243 | 0.193 | 0.2 | 0.262 |  | 0.238 | 0.223 | 0.186 | 0.68 | 0.619 | 0.462 | 0.602 | 0.355 | 0.559 | 0.613 | 0.611 | 0.46 | 0.342
5 | NCI-H1915 | 0.807 | 0.674 | 0.793 | 0.71 | 0.629 | 0.628 | 0.426 | 0.511 | 0.513 | 0.407 | 0.972 | 0.379 | 1.04 | 0.942 | 0.808 | 0.277 |  | 0.254 | 0.254 | 0.26
6 | NCI-H322M | 0.699 | 0.729 | 0.647 | 0.657 | 0.475 | 0.553 | 0.499 | 0.385 | 0.435 | 0.446 | 0.637 | 0.563 | 0.513 | 0.482 | 0.387 | 0.691 | 0.654 | 0.674 | 0.654 | 0.521
7 | NCI-H1792 | 0.558 | 0.498 | 0.288 | 0.327 | 0.371 | 0.821 | 0.688 | 0.649 | 0.537 | 0.485 | 0.872 | 0.728 | 0.882 | 0.752 | 0.543 | 0.567 | 0.432 | 0.597 | 0.469 | 0.389
8 | PC-3 [JPC-3] | 0.708 | 0.743 | 0.649 | 0.661 | 0.53 | 0.728 | 0.599 | 0.561 | 0.483 | 0.349 | 0.436 | 0.378 | 0.433 | 0.415 | 0.344 | 0.804 | 0.713 | 0.76 | 0.782 | 0.607
